The values that follow come from patent publication US9120791B2, “Indolizine compounds, a process for their preparation and pharmaceutical compositions containing them” (LES LABORATOIRES SERVIER, priority 2012, dated 2015).

Counter-ions that a name gives are not always drawn. Like-named read-outs stand apart in the source and are kept apart here.

The IC50 is the midpoint of a concentration-inhibition curve.

One assay relates to caspase 3. As to the kind of experiment: Induction of caspase activity in vivo (DEVDase activity in tumour lysates, RS4;11 xenograft). Also noted: species or system mice (SCID strain). Particulars: oral treatment, 16 hours after treatment, RS4;11 xenograft in SCID mice; for Activation factor (versus control), DEVDase activity in the tumours / fold induction at 50 mg/kg: 50 mg/kg. How it is done:
The ability of the compounds of the invention to activate caspase 3 is evaluated in a xenograft model of RS4;11 leukaemia cells.
1×10^7 RS4;11 cells are grafted sub-cutaneously into immunosuppressed mice (SCID strain). 25 to 30 days after the graft, the animals are treated orally with the various compounds. Sixteen hours after treatment, the tumour masses are recovered and lysed, and the caspase 3 activity is measured in the tumour lysates.
This enzymatic measurement is carried out by assaying the appearance of a fluorigenic cleavage product (DEVDase activity, Promega). It is expressed in the form of an activation factor corresponding to the ratio between the two caspase activities:the activity for the treated mice divided by the activity for the control mice.

Assay [1] has as its system RS4;11 leukaemia tumour line. As to the kind of experiment: In vitro cytotoxicity (Microculture Tetrazolium Assay, 48 hours). It counts as cell-based. Particulars: RS4;11 cells, 48 hours exposure, MTT, concentration that inhibits cell viability by 50%, read-out: IC50 (nM) MTT RS4. As to the method:
The cytotoxicity studies were carried out on the RS4;11 leukaemia tumour line.
The cells are distributed onto microplates and exposed to the test compounds for 48 hours.

In the next assay the target is Bcl-2 protein (Homo sapiens (Human), UniProt P10415). Description: Inhibition of Bcl-2 by the fluorescence polarisation technique. In kind it is binding. Particulars: fluorescence polarisation test; concentration that inhibits fluorescence polarisation by 50%; read-out: IC50 (nM) Bcl-2 FP. As to the method:
The fluorescence polarisation tests were carried out on microplates (384 wells). […] After incubation for 2 hours, the fluorescence polarisation is measured.

Where [2] appears, read: Mus musculus, read-out: Activation factor (versus control), DEVDase activity in the tumours.

Chain of Bcl-2 protein (P10415 whole entry): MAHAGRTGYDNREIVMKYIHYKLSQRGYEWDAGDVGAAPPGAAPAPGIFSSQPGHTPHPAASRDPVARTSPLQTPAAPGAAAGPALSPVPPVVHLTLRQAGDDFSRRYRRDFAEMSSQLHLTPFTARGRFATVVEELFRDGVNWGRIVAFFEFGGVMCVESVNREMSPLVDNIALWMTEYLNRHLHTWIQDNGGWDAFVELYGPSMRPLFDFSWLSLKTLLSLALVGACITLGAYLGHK

As for `Cc1ccc(N(C(=O)c2cc(-c3cc4c(cc3C(=O)N3Cc5ccccc5C[C@H]3CN3CCOCC3)OCO4)n3c2CCCC3)c2ccc(O)cc2)cc1` [Example 2, N-(4-Hydroxyphenyl)-N-(4-methylphenyl)-3-{6-[((3S)-3-(4-morpholinylmethyl)-3,4-dihydro-2(1H)-isoquinolinyl)carbonyl]-1,3-benzodioxol-5-yl}-5,6,7,8-tetrahydro-1-indolizine carboxamide hydrochloride], the fold induction at 100 mg/kg with caspase 3 (Mus musculus, 100 mg/kg, read-out: Activation factor (versus control), DEVDase activity in the tumours) came to 27.8. In addition, the half-inhibitory concentration (IC50) in assay [1] (Homo sapiens) is 49.8 nM; at Bcl-2 protein, 20 nM.
For the molecule `Cl.O=C(c1cc(-c2cc3c(cc2C(=O)N2Cc4ccccc4C[C@H]2CN2CCOCC2)OCO3)n2c1CCCC2)N(c1ccc(O)cc1)c1ccc(Cl)cc1` [Example 3, N-(4-Chlorophenyl)-N-(4-hydroxyphenyl)-3-{6-[((3S)-3-(4-morpholinylmethyl)-3,4-dihydro-2(1H)-isquinolinyl)carbonyl]-1,3-benzdioxol-5-yl}-5,6,7,8-tetrahydro-1-indolizine carboxamide hydrochloride], the “Activation factor (versus control), DEVDase activity in the tumours” value with caspase 3 was 5.7 (50 mg/kg). In addition, the IC50 in assay [1] turned out to be 44.7 nM.
Turning to `Cc1ccc(N(C(=O)c2cc(-c3cc4c(cc3C(=O)N3Cc5ccccc5C[C@H]3CN3CCOCC3)OCO4)n3c2CCCC3)c2ccc(O)cc2)cc1F` [Example 4, N-(3-Fluoro-4-methylphenyl)-N-(4-hydroxyphenyl)-3-{6-[((3S)-3-(4-morpholinylmethyl)-3,4-dihydro-2(1H)-isoquinolinyl)carbonyl]-1,3-benzodioxol-5-yl}-5,6,7,8-tetrahydro-1-indolizine carboxamide hydrochloride], the fold induction at 50 mg/kg in the assay on caspase 3 (setting [2]) was determined as 29.2. For the same molecule, the values for the half-inhibitory concentration (IC50) (in assay [1] (Homo sapiens); on Bcl-2 protein) were 27.1 nM and 19 nM, respectively.
On to `O=C(c1cc(-c2cc3c(cc2C(=O)N2Cc4ccccc4C[C@H]2CN2CCOCC2)OCO3)n2c1CCCC2)N(c1ccc(O)cc1)c1ccc2c(c1)CCN2` [Example 8, N-(2,3-Dihydro-1H-indol-5-yl)-N-[4-(hydroxy)phenyl]-3-{6-[((3S)-3-(4-morpholinylmethyl)-3,4-dihydro-2(1H)-isoquinolinyl)carbonyl]-1,3-benzodioxol-5-yl}-5,6,7,8-tetrahydro-1-indolizine carboxamide bis(hydrochloride)], for which the fold induction at 50 mg/kg with caspase 3 (setting [2]) stood at 9.8. Further, the figures for the IC50 (in assay [1] (Homo sapiens); on Bcl-2 protein) were 25.6 nM and 15 nM, respectively.
Regarding `CN1CCc2cc(N(C(=O)c3cc(-c4cc5c(cc4C(=O)N4Cc6ccccc6C[C@H]4CN4CCOCC4)OCO5)n4c3CCCC4)c3ccc(O)cc3)ccc21` [Example 9, N-[4-(Hydroxy)phenyl]-N-(1-methyl-2,3-dihydro-1H-indol-5-yl)-3-{6-[((3S)-3-(4-morpholinylmethyl)-3,4-dihydro-2(1H)-isoquinolinyl)carbonyl]-1,3-benzodioxol-5-yl}-5,6,7,8-tetrahydro-1-indolizine carboxamide hydrochloride], the fold induction at 50 mg/kg with caspase 3 (setting [2]) is 20.6. The concentration for half-maximal inhibition (IC50) in assay [1] (Homo sapiens) came to 16.1 nM; at Bcl-2 protein, 13 nM.
Consider `Cn1ccc2cc(N(C(=O)c3cc(-c4cc(Cl)ccc4C(=O)N4Cc5ccccc5C[C@H]4CN4CCOCC4)n4c3CCCC4)c3ccc(O)cc3)ccc21` [Example 22, 3-{5-Chloro-2-[((3S)-3-(4-morpholinylmethyl)-3,4-dihydro-2(1H)-isoquinolinyl)carbonyl]phenyl}-N-(4-hydroxyphenyl)-N-(1-methyl-1H-indol-5-yl)-5,6,7,8-tetrahydro-1-indolizine carboxamide hydrochloride], for which the fold induction at 50 mg/kg in the assay with caspase 3 (setting [2]) is 11.3. Further, the IC50 in assay [1] (Homo sapiens) came out at 19.1 nM; at Bcl-2 protein, 27 nM.
For `CN1CCc2cc(N(C(=O)c3cc(-c4cc(Cl)ccc4C(=O)N4Cc5ccccc5C[C@H]4CN4CCOCC4)n4c3CCCC4)c3ccc(O)cc3)ccc21` [Example 23, 3-{5-Chloro-2-[((3S)-3-(4-morpholinylmethyl)-3,4-dihydro-2(1H)-isoquinolinyl)carbonyl]phenyl}-N-(4-hydroxyphenyl)-N-(1-methyl-2,3-dihydro-1H-indol-5-yl)-5,6,7,8-tetrahydro-1-indolizine carboxamide bis(hydrochloride)], in the assay with caspase 3 (setting [2]), the fold induction at 50 mg/kg came to 22.7. Also, the values for the 50% inhibitory concentration (IC50) (in assay [1] (Homo sapiens); at Bcl-2 protein) were 23 nM and 14 nM, respectively.
With `Cl.O=C(c1cc(-c2cc3c(cc2C(=O)N2Cc4ccccc4C[C@H]2CN2CCOCC2)OCO3)n2ccccc12)N(c1ccccc1)c1ccc(O)cc1` [Example 58, N-(4-Hydroxyphenyl)-3-{6-[((3S)-3-(4-morpholinylmethyl)-3,4-dihydro-2(1H)-isoquinolinyl)carbonyl]-1,3benzodioxol-5-yl}-N-phenyl-indolizine carboxamide hydrochloride], the “Activation factor (versus control), DEVDase activity in the tumours” value with caspase 3 is reported as 23.3 (50 mg/kg). For the same molecule, in assay [1], the concentration for half-maximal inhibition (IC50) worked out at 40.1 nM.
As for `CN1CCN(C[C@@H]2Cc3ccccc3CN2C(=O)c2cc3c(cc2-c2cc(C(=O)N(c4ccccc4)c4ccc(O)cc4)c4n2CCCC4)OCO3)CC1=O` [Example 128, N-(4-Hydroxyphenyl)-3-(6-{[(3S)-3-[(4-methyl-3-oxopiperazin-1-yl)methyl]-3,4-dihydroisoquinolin-2(1H)-yl]carbonyl}-1,3-benzodioxol-5-yl)-N-phenyl-5,6,7,8-tetrahydroindolizine-1-carboxamide hydrochloride], the concentration for half-maximal inhibition (IC50) was 63.4 nM in assay [1] (Homo sapiens) and 10 nM at Bcl-2 protein.
Take `N#Cc1ccc(N(C(=O)c2cc(-c3cc(Cl)ccc3C(=O)N3Cc4ccccc4C[C@H]3CN3CCOCC3)n3c2CCCC3)c2ccc(O)cc2)cc1` [Example 129, 3-(5-Chloro-2-{[(3S)-3-(morpholin-4-ylmethyl)-3,4-dihydroisoquinolin-2(1H)-yl]carbonyl}phenyl)-N-(4-cyanophenyl)-N-(4-hydroxyphenyl)-5,6,7,8-tetrahydroindolizine-1-carboxamide hydrochloride]: the figures for the IC50 (in assay [1] (Homo sapiens); on Bcl-2 protein) were 46.7 nM and 9 nM, respectively.
`O=C(c1cc(-c2cc(Cl)ccc2C(=O)N2Cc3ccccc3C[C@H]2CN2CCOCC2)n2c1CCCC2)N(c1ccc(O)cc1)c1cccc(Cl)c1` [Example 131, 3-(5-Chloro-2-{[(3S)-3-(morpholin-4-ylmethyl)-3,4-dihydroisoquinolin-2(1H)-yl]carbonyl}phenyl)-N-(3-chlorophenyl)-N-(4-hydroxyphenyl)-5,6,7,8-tetrahydroindolizine-1-carboxamide hydrochloride]: the IC50 was 88.4 nM in assay [1] (Homo sapiens) and 30 nM at Bcl-2 protein.
Consider `N#Cc1ccccc1N(C(=O)c1cc(-c2cc(Cl)ccc2C(=O)N2Cc3ccccc3C[C@H]2CN2CCOCC2)n2c1CCCC2)c1ccc(O)cc1` [Example 134, 3-(5-Chloro-2-{[(3S)-3-(morpholin-4-ylmethyl)-3,4-dihydroisoquinolin-2(1H)-yl]carbonyl}phenyl)-N-(2-cyanophenyl)-N-(4-hydroxyphenyl)-5,6,7,8-tetrahydroindolizine-1-carboxamide hydrochloride], for which the concentration for half-maximal inhibition (IC50) in assay [1] (Homo sapiens) was 305 nM; on Bcl-2 protein, 37 nM.
For “Tert-butyl 8-{[4-hydroxy(1-methyl-1H-indol-5-yl)anilino]carbonyl}-6-{6-[((3S)-3-(4-morpholinylmethyl)-3,4-dihydro-2(1H)-isoquinolinyl)carbonyl]-1,3-benzodioxol-5-yl}-3,4-dihydropyrrolo[1,2-a]pyrazine-2(1H)-carboxylate [Example 72]”, the IC50 in assay [1] turned out to be 270 nM; at Bcl-2 protein, 220 nM.
